Assays:
BALB/c mice = test: In vivo mRNA delivery in mice with DNPs, whole-body bioluminescence imaging (IVIS); conditions: for Organs with luminescence / Total flux (p/s): mice; for Total flux (p/s): IVIS imaging 4 h after Luc-mRNA-IAJD injection
Method: (§1) The exposure time was 1 min.
Luminescence characterization for in vivo transfection experiments employed bioluminescence imaging with an IVIS Spectrum imaging system (PerkinElmer, Waltham, MA). Mice were anesthetized with 3% of isoflurane (Piramal Healthcare Limited) and intraperitoneally (i.p.) administered with D-luciferin (Regis Technologies) at a dose of 150 mg/kg of body weight. Ten minutes post administration of D-luciferin, mice were placed on the imaging platform while being maintained on isoflurane via a nose cone and imaged using an exposure time of 60 seconds. […] To quantify luminescent flux, an oval ROI was placed over each organ of interest and analyzed.
(§2) Tissue luminescence signal was measured on the IVIS imaging system using an exposure time of 60 seconds using medium binning (binning=8) to ensure that the signal obtained was within operative detection range. […] Bioluminescence imaging was performed as described above.
Luminescence Characterization for In Vivo Transfection Experiments: bioluminescence imaging was performed with an IVIS Spectrum imaging system (PerkinElmer, Waltham, MA).

HEK293T cells = test: In vitro Luc-mRNA transfection, luciferase luminescence expression in HEK293T cells; assay type: cell-based, human; design: unit not given here
Method: In Vitro Transfection Activity of DNPs in Human Embrionic Kidney (HEK) 293T Cells: HEK293T cells were seeded into 96-well plates (20,000 cells/well/200 μL) and cultured for 24 h at 37° C. in 5% CO2 complete cell culture media. Screening experiments were performed with nonoptimized DNPs containing naked nucleoside-modified mRNA (Karikó, et al., Immunity 2005, 23, 165-175; Pardi, et al., Methods Mol. Biol. 2013, 969, 29-42), of molar mass 664,341 encoding firefly luciferase (mRNA-Luc). A constant concentration of mRNA-Luc of 125 ng/well was used. The transIT (TransIT-mRNA transfection Kit from Mirus Bio) and MC3-based LNPs (MC3: DLin-MC3-DMA, which is the FDA approved LNP for mRNA delivery) were used as positive controls for cell transfection at a concentration of mRNA-Luc of 125 ng/well, identical to that of the tested DNPs. Subsequently cells were cultured for 24 h, the medium was aspirated under reduced pressure by a glass pipette and cells were lysed with 30 μL/well of cell culture lysis reagent (Promega). The luminescence intensity corresponding to the luciferase protein expressed was characterized and analyzed.
In vitro mRNA Delivery: Human embryonic kidney (HEK) 293T cells (American Type Culture Collection) were cultured in Dulbecco's modified Eagle's medium (DMEM) supplemented with 10% inactivated fetal bovine serum (FBS) (Gemini Bio-Products), 2 mM L-glutamine and 100 U/mL penicillin/streptomycin (Life Technologies) (complete medium). For in vitro screening experiments, HEK293T cells were seeded into 96-well plates (20,000 cells/well/200 μL) and cultured for 24 h in at 37° C. and 5% CO2 in complete media. Cell were transfected with IAJDs with encapsulated naked nucleoside-modified mRNA encoding firefly luciferase (mRNA-Luc) with fixed concentration of mRNA-Luc, 125 ng per well. The transIT (TransIT®-mRNA Transfection Kit, Mirus Bio) was used as a positive control for cell transfection, accordingly per manufacturer protocol and added to cells at the concentration of mRNA-Luc, 125 ng per well, the same as for tested particles. Cells were further cultured for 24 h, then medium was aspirated, and cells were lysed with 30 μL/well of cell culture lysis reagent (Promega). For the characterization of luminescence intensity, 2.5 μL of the lysed cells was mixed with 10 μL of luciferase assay substrate and luminescence was analyzed using a MiniLumat LB 9506 luminometer (Berthold/EG&G; Wallac).
Luminescence characterization for in vitro transfection experiments was performed by determining the luminescence intensity for in vitro Luc-mRNA transfection experiments using a MiniLumat LB 9506 luminometer (Berthold/EG&G; Wallac).
For in vitro Luc-mRNA transfection screening experiments, human embryonic kidney 293 cells (HEK 293) were seeded into 96-well plates (20,000 cells/well/200 μL) and cultured for 18-20 hours at 37° C., 5% CO2 in complete Dulbecco's modified Eagle's medium (DMEM) supplemented with 2 mM L-glutamine (Life Technologies), 100 U/mL penicillin/streptomycin (Invitrogen) and 10% fetal bovine serum (FBS, Gemini Bio-Products). Cells were transfected with DNPs with encapsulated naked nucleoside-modified mRNA encoding firefly luciferase (Luc-mRNA) at constant concentration of Luc-mRNA, 125 ng per well. Luc-mRNA complexed with TransIT (TransIT®-mRNA Transfection Kit, Mirus Bio) or encapsulated in FDA approved MC3-based LNPs were used as positive controls for cell transfection, at the concentration of Luc-mRNA of 125 ng per well, the same as for tested DNPs. After transfection cells were further cultured at 37° C., 5% CO2 for 18-20 hours, then medium was aspirated and cells were lysed with luciferase cell culture lysis reagent (30 μL/well) (Promega, Madison, WI). […]

spleen = test: In vivo mRNA delivery, IVIS imaging of organs: spleen; design: species or system mice; key to Organs with luminescence: spleen: strong: Strong meant the luminescence intensity in that organ was relatively high, compared to other organs; weak: Weak meant the luminescence intensity in that organ was relatively low, compared to other organs; conditions: for Organs with luminescence: spleen (weak/strong): Table 14; for Organs with luminescence: spleen: Table 17, mice, IVIS, 4-6 h after injection, intensity relative to other organs
Method: as §1, §2
Tissue luminescence signal was measured on the IVIS imaging system using a certain exposure time (60, 30 or 15 seconds) and medium binning (binning=8) to ensure that the signal obtained was within operative detection range.

[1] = Acetate buffer 10 mM pH 4.0, CIAJD 4 mg/mL, CLuc-mRNA 0.05 mg/mL, HEK293T, 125 ng/well
[2] = Citrate buffer 10 mM pH 3.0, CIAJD 4 mg/mL, CLuc-mRNA 0.05 mg/mL, HEK293T, 125 ng/well
[3] = HEK293T cells, Luc-mRNA 125 ng/well, n=3
[4] = Table 16, HEK 293T cells, 125 ng/well, n=3

| Compound | Luminescence (HEK293T cells; [3]) | Organs with luminescence: spleen (weak/strong) (spleen; imaging 5 h after injection) | Luminescence (HEK293T cells; [4]) | further results |
| --- | --- | --- | --- | --- |
| 3,5-Bis(dodecyloxy)benzyl 3-(4-methylpiperazin-1-yl)propanoate [IAJD 84] |  |  |  | Organs with luminescence (BALB/c mice; 4 h from injection, CIAJD 4.0 mg/mL, CLuc-mRNA 0.1 mg/mL, acetate buffer pH 5.2): Lung, spleen; Luminescence (HEK293T cells; [1]): 3,876; Luminescence (HEK293T cells; Acetate buffer 10 mM pH 5.2, CIAJD 4 mg/mL, CLuc-mRNA 0.10 mg/mL, HEK293T, 125 ng/well): 18,268; Luminescence (HEK293T cells; [2]): 819 |
| CCCCCCCCCCCCOc1cc(COC(=O)CCCN2CCCCC2)cc(OCCCCCCCCCCCC)c1 [IAJD 65, 3,5-Bis(dodecyloxy)benzyl 4-(piperidin-1-yl)butanoate] | 18 |  |  | Total flux (p/s) (BALB/c mice; Table 13): 0 p/s; Total flux (p/s) (BALB/c mice; Table 14): 0 p/s |
| CCCCCCCCCCCCOc1ccc(COC(=O)CCCN2CCN(C)CC2)cc1OCCCCCCCCCCCC [IAJD 78, 3,4-Bis(dodecyloxy)benzyl 4-(4-methylpiperazin-1-yl)butanoate] | 8,688 | spleen (weak) |  | Organs with luminescence (BALB/c mice; Table 13, IVIS imaging 5 h after injection): Lung, spleen |
| CCCCCCCCCCCCOc1cc(COC(=O)CCCN2CCN(C)CC2)cc(OCCCCCCCCCCCC)c1OCCCCCCCCCCCC [IAJD 79, 3,4,5-Tris(dodecyloxy)benzyl 4-(4-methylpiperazin-1-yl)butanoate] | 27,615 |  |  | Organs with luminescence: spleen (weak/strong) (spleen; imaging 6 h after injection): spleen (strong) |
| CCCCCCCCCCCCOCC(COCCCCCCCCCCCC)(COCCCCCCCCCCCC)COC(=O)CCCN1CCN(CCO)CC1 [IAJD 83, 3-(Dodecyloxy)-2,2-bis((dodecyloxy)methyl)propyl 4-(4-(2-hydroxyethyl)piperazin-1-yl)butanoate] | 68,691 | spleen (strong) |  |  |
| CCCCCCCCCCCCOc1cc(COC(=O)CCN2CCN(C)CC2)cc(OCCCCCCCCCCCC)c1 [IAJD 84, 3,5-Bis(dodecyloxy)benzyl 3-(4-methylpiperazin-1-yl)propanoate] | 205 | spleen (strong) |  |  |
| CCCCCCCOC(=O)CCCCOc1cc(COC(=O)CCCN2CCN(C)CC2)cc(OCCCCC(=O)OCCCCCCC)c1 [IAJD 85, Diheptyl 5,5′-((5-(((4-(4-methylpiperazin-1-yl)butanoyl)oxy)methyl)-1,3-phenylene)bis(oxy)) dipentanoate] | 47,369 | spleen (strong) |  |  |
| CCCCC(CC)COC(=O)CCCCOc1cc(COC(=O)CCCN2CCN(CCO)CC2)cc(OCCCCC(=O)OCC(CC)CCCC)c1 (stereo not drawn) [IAJD 95] | 153,564 |  |  | Organs with luminescence: spleen (weak/strong) (spleen; imaging 6 h after injection): spleen (strong) |
| CCCCC(CC)COc1cc(COC(=O)CCCN2CCN(C)CC2)cc(OCC(CC)CCCC)c1OCC(CC)CCCC (stereo not drawn) [IAJD 96, 3,4,5-Tris((2-ethylhexyl)oxy)benzyl 4-(4-methylpiperazin-1-yl)butanoate] | 22,799 | spleen (strong) |  |  |
| CCCCC(CC)COc1cc(COC(=O)CCCN2CCN(CCO)CC2)cc(OCC(CC)CCCC)c1OCC(CC)CCCC (stereo not drawn) [IAJD 97, 3,4,5-Tris((2-ethylhexyl)oxy)benzyl 4-(4-(2-hydroxyethyl)piperazin-1-yl)butanoate] | 342,016 | spleen (strong) |  |  |
| CCCCCCCCCCCCOc1cc(COC(=O)c2cc(OCCOCCOCCCC(=O)CCCN3CCCCC3)c(OCCOCCOCCOCc3ccccc3)c(OCCOCCOCCOC(=O)CCCN3CCCCC3)c2)cc(OCCCCCCCCCCCC)c1 [IAJD 110] |  |  | 47 |  |
| CCCCCCCCCCCOc1cc(COC(=O)c2cc(OCCOCCOCCCC(=O)CCCN3CCCCC3)c(OCCOCCOCCOCc3ccccc3)c(OCCOCCOCCOC(=O)CCCN3CCCCC3)c2)cc(OCCCCCCCCCCC)c1 [IAJD 111] |  |  | 41 | Organs with luminescence: spleen (spleen): spleen (weak) |
| CCCCCCCCCCCCCCOc1cc(CNC(=O)CCCN2CCN(C)CC2)cc(OCCCCCCCCCCC)c1 [IAJD 133, 4-(4-Methylpiperazin-1-yl)-N-(3-(tetradecyloxy)-5-(undecyloxy)benzyl)butanamide] |  |  | 107,307 | Organs with luminescence: spleen (spleen): spleen (weak) |
| CCCCCCCCCCCOc1cc(COC(=O)c2cc(OCCOCCOCCCC(=O)CCCN3CCCCC3)c(OCCOCCOCCOCc3ccccc3)c(OCCOCCOCCOC(=O)CCCN3CCCCC3)c2)cc(OCC(CC)CCCC)c1 (stereo not drawn) [IAJD 155] |  |  | 74 | Organs with luminescence: spleen (spleen): spleen (weak) |
| CCCCCCCCCCCCCCOc1cc(COC(=O)c2cc(OCCOCCOCCCC(=O)CCCN3CCCCC3)c(OCCOCCOCCOCc3ccccc3)c(OCCOCCOCCOC(=O)CCCN3CCCCC3)c2)cc(OCCCCCCCCCCC)c1 [IAJD 156] |  |  | 59 |  |
| CCCCCCCCCCCCCCCOc1cc(COC(=O)c2cc(OCCOCCOCCCC(=O)CCCN3CCCCC3)c(OCCOCCOCCOCc3ccccc3)c(OCCOCCOCCOC(=O)CCCN3CCCCC3)c2)cc(OCCCCCCCCCCC)c1 [IAJD 157] |  |  | 47 |  |
| CCCCCCCCCCCCCCCCCOc1cc(COC(=O)c2cc(OCCOCCOCCCC(=O)CCCN3CCCCC3)c(OCCOCCOCCOCc3ccccc3)c(OCCOCCOCCOC(=O)CCCN3CCCCC3)c2)cc(OCCCCCCCCCCC)c1 [IAJD 158] |  |  | 83 |  |
| CCCCCCCCCCCCCCCCCOc1cc(CNC(=O)c2cc(OCCOCCOCCOC(=O)CCCN3CCCCC3)c(OCCCOCOCCOCc3ccccc3)c(OCCOCCOCCOC(=O)CCCN3CCCCC3)c2)cc(OCCCCCCCCCCCCCCCCC)c1 [IAJD 159] |  |  | 24,055 | increase of activity, amide vs ester interconnecting group (BALB/c mice; transition from 158(11/17) (ester) to 159(11/17) (amide)): about 6 fold |
| Diheptyl 5,5′-((5-(((4-(4-methylpiperazin-1-yl)butanoyl)oxy)methyl)-1,3-phenylene)bis(oxy)) dipentanoate [IAJD 85] |  |  |  | Luminescence (HEK293T cells; [1]): 734; Luminescence (HEK293T cells; Acetate buffer 10 mM pH 4.0, CIAJD 4 mg/mL, CLuc-mRNA 0.10 mg/mL, HEK293T, 125 ng/well): 2,498; Luminescence (HEK293T cells; [2]): 1,176 |

— patent publication US20240252677A1, “ONE-COMPONENT DELIVERY SYSTEM FOR NUCLEIC ACIDS” (The Trustees of the University of Pennsylvania, priority 2021, published 2024)
